Assay results taken from ChEMBL document CHEMBL3045499, “Chem-bioinformatics and in vitro approaches for candidate optimization: a case study of NSC745689 as a promising antitumor agent” (Med Chem Res, 2013).
pIC50: −log10 of the molar value. Active and inactive are the calls of the source. No cut-off for these calls is given here.

Assays:
[1] = test system: HOP-62; assay: Growth inhibition of Homo sapiens (human) HOP62 cells after 48 hr by SRB assay; assay type: functional; conditions: HOP-62, 48 h
[2] = test system: HL-60(TB); assay: Growth inhibition of Homo sapiens (human) HL-60(TB) cells after 48 hr by SRB assay; assay type: functional; conditions: HL-60, 48 h
[3] = test system: NCI-H226; assay: Growth inhibition of Homo sapiens (human) NCI-H226 cells after 48 hr by SRB assay; assay type: functional; conditions: NCI-H226, 48 h
[4] = test system: BT-549; assay: Growth inhibition of Homo sapiens (human) BT549 cells after 48 hr by SRB assay; assay type: functional; conditions: BT-549, 48 h
[5] = test system: NCI-H23; assay: Growth inhibition of Homo sapiens (human) NCI-H23 cells after 48 hr by SRB assay; assay type: functional; conditions: NCI-H23, 48 h
[6] = test system: EKVX; assay: Growth inhibition of Homo sapiens (human) EKVX cells after 48 hr by SRB assay; assay type: functional
[7] = test system: MOLT-4; assay: Growth inhibition of Homo sapiens (human) MOLT4 cells after 48 hr by SRB assay; assay type: functional; conditions: MOLT-4, 48 h
[8] = test system: SNB-75; assay: Growth inhibition of Homo sapiens (human) SNB75 cells after 48 hr by SRB assay; assay type: functional; conditions: SNB-75, 48 h
[9] = test system: NCI-H322M; assay: Growth inhibition of Homo sapiens (human) NCI-H322M cells after 48 hr by SRB assay; assay type: functional
[10] = test system: MDA-MB-231; assay: Growth inhibition of Homo sapiens (human) MDA-MB-231/ATCC cells after 48 hr by SRB assay; assay type: functional; conditions: MDA-MB-231, 48 h
[11] = test system: MCF7; assay: Growth inhibition of Homo sapiens (human) MCF7 cells after 48 hr by SRB assay; assay type: functional; conditions: MCF7, 48 h
[12] = molecular target: Cytochrome P450 1A1 (Homo sapiens, UniProt P04798); assay: Inhibition of recombinant CYP1A1 (unknown origin) using 7-ethoxyresorufin as substrate by EROD assay
[13] = test system: NCI/ADR-RES; assay: Growth inhibition of Homo sapiens (human) NCI/ADR-RES cells after 48 hr by SRB assay; assay type: functional
[14] = test system: RPMI-8226; assay: Growth inhibition of Homo sapiens (human) RPMI8226 cells after 48 hr by SRB assay; assay type: functional; conditions: RPMI-8226, 48 h
[15] = test system: K562; assay: Growth inhibition of Homo sapiens (human) K562 cells after 48 hr by SRB assay; assay type: functional; conditions: K562, 48 h
[16] = test system: SNB-19; assay: Growth inhibition of Homo sapiens (human) SNB19 cells after 48 hr by SRB assay; assay type: functional; conditions: SNB-19, 48 h
[17] = test system: SF-539; assay: Growth inhibition of Homo sapiens (human) SF539 cells after 48 hr by SRB assay; assay type: functional; conditions: SF-539, 48 h
[18] = test system: HOP-92; assay: Growth inhibition of Homo sapiens (human) HOP92 cells after 48 hr by SRB assay; assay type: functional; conditions: HOP-92, 48 h
[19] = test system: T47D; assay: Growth inhibition of Homo sapiens (human) T47D cells after 48 hr by SRB assay; assay type: functional
[20] = test system: NCI-H522; assay: Growth inhibition of Homo sapiens (human) NCI-H522 cells after 48 hr by SRB assay; assay type: functional; conditions: NCI-H522, 48 h
[21] = test system: SF-268; assay: Growth inhibition of Homo sapiens (human) SF268 cells after 48 hr by SRB assay; assay type: functional; conditions: SF-268, 48 h
[22] = test system: HOP-92; assay: Growth inhibition of Homo sapiens (human) HOP92 cells at 1 uM after 48 hr by SRB assay; assay type: functional, cell-based
[23] = test system: MDA-MB-435; assay: Growth inhibition of Homo sapiens (human) MDA-MB-435 cells after 48 hr by SRB assay; assay type: functional; conditions: MDA-MB-435, 48 h
[24] = test system: NCI-H460; assay: Growth inhibition of Homo sapiens (human) NCI-H460 cells after 48 hr by SRB assay; assay type: functional; conditions: NCI-H460, 48 h
[25] = test system: U-251; assay: Growth inhibition of Homo sapiens (human) U251 cells after 48 hr by SRB assay; assay type: functional; conditions: U-251, 48 h
[26] = test system: A549; assay: Growth inhibition of Homo sapiens (human) A549/ATCC cells after 48 hr by SRB assay; assay type: functional; conditions: A549, 48 h
[27] = test system: SNB-75; assay: Growth inhibition of Homo sapiens (human) SNB75 cells at 1 uM after 48 hr by SRB assay; assay type: functional, cell-based
[28] = test system: SF-295; assay: Growth inhibition of Homo sapiens (human) SF295 cells after 48 hr by SRB assay; assay type: functional; conditions: SF-295, 48 h
[29] = test system: CCRF-CEM; assay: Growth inhibition of Homo sapiens (human) CCRF-CEM cells after 48 hr by SRB assay; assay type: functional
[30] = test system: Hs-578T; assay: Growth inhibition of Homo sapiens (human) Hs 578T cells after 48 hr by SRB assay; assay type: functional
[31] = test system: SR; assay: Growth inhibition of Homo sapiens (human) SR cells after 48 hr by SRB assay; assay type: functional
[32] = test system: MDA-MB-468; assay: Growth inhibition of Homo sapiens (human) MDA-MB-468 cells after 48 hr by SRB assay; assay type: functional; conditions: MDA-MB-468, 48 h

Sequence of Cytochrome P450 1A1 (P04798 whole entry): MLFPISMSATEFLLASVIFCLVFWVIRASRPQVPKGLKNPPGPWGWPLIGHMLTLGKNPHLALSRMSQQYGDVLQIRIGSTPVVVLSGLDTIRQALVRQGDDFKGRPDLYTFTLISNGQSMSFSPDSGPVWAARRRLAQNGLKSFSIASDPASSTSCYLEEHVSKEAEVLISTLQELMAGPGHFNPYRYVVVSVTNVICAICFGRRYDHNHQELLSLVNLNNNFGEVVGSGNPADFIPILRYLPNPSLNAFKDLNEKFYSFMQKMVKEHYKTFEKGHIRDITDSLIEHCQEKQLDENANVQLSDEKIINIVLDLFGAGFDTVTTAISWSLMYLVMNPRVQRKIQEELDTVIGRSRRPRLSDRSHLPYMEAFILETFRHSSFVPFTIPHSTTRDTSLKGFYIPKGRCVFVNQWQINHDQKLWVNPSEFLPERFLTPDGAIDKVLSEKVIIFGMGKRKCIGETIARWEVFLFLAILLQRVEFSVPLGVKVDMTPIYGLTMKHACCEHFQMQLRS

Compound	GI50 [1] [µM]	GI50 [2] [µM]	GI50 [3] [µM]	GI50 [4] [µM]	GI50 [5] [µM]	GI50 [6] [µM]	GI50 [7] [µM]	GI50 ([8]; read-out: pGI50 (converted)) [µM]	GI50 [9] [µM]	GI50 [10] [µM]	GI50 [11] [µM]	GI50 [13] [µM]	GI50 [15] [µM]	GI50 [16] [µM]	GI50 [17] [µM]	GI50 ([18]; read-out: pGI50 (converted)) [µM]	GI50 [19] [µM]	GI50 [21] [µM]	GI50 [23] [µM]	GI50 [24] [µM]	also measured
CSc1nc2sc3cc(Cl)ccc3n2c(=N)c1C#N	38	1.35	38	23.4	26.9	9.77	2.51	12.3	> 100	74.1	3.89	17.8	27.5	40.7	26.9	0.01	28.2	21.4	> 100	63.1	GI50 ([8]; read-out: GI50): 0.416 µM; pIC50 [12]: 5.60; GI50 [14]: 64.6 µM; GI50 ([18]; read-out: GI50): 0.219 µM; GI50 [20]: 60.3 µM; growth inhibition (GI) [22]: Active; GI50 [25]: 30.2 µM; GI50 [26]: 5.89 µM; growth inhibition (GI) [27]: Active; GI50 [28]: 2.19 µM; GI50 [29]: 3.55 µM; GI50 ([30]; read-out: GI50): 1.71 µM; GI50 ([30]; read-out: pGI50 (converted)): 4.9 µM; GI50 [31]: 9.77 µM
N#Cc1c(Nc2ccc(Cl)cc2)nc2sc3cc(Cl)ccc3n2c1=N	0.00457	> 100	2.4	24.5	0.646	10.2	2.51	5.01	28.2	7.24	1.82	4.68	> 100	> 100	8.71	> 100	> 100	4.07	6.17	21.9	GI50 ([18]; read-out: GI50): 1.82 µM; GI50 [32]: 3.63 µM; GI50 [25]: 6.61 µM; GI50 [28]: 3.02 µM; GI50 ([30]; read-out: pGI50 (converted)): 1.45 µM; GI50 [31]: 2.29 µM
COc1ccc(Nc2nc3sc4cc(Cl)ccc4n3c(=N)c2C#N)cc1	3.39	34.7	1.91	4.07	1.55	1.91	13.2	3.39	3.31	2.04	2.51	2.82	57.5	40.7	30.9	20.9	29.5	4.37	3.09	26.3	GI50 [14]: 17 µM; GI50 [20]: 33.1 µM; GI50 [32]: 3.55 µM; GI50 [25]: 4.07 µM; GI50 [26]: 50.1 µM; GI50 [28]: 1.7 µM; GI50 [29]: 17.4 µM; GI50 ([30]; read-out: GI50): 0.406 µM; GI50 ([30]; read-out: pGI50 (converted)): 0.407 µM; GI50 [31]: 19.1 µM
